Data from patent US11033518B2, “Pharmaceutical composition containing niclosamide for treating axin-GSK3 interaction-related diseases” (BAOBAB PHARM CO., LTD., priority 2017, dated 2021).
Where two headings read alike, the source gives them in different places. Values belong to the compound of their own block, whether it stands above or below them. Ends that are not written are not given here.

Assays:
[1] = relative to paclitaxel; cited from earlier work
recombinant GSK3 beta = molecular target: T1, recombinant GSK3 beta (Homo sapiens, UniProt P49841); experiment: Surface plasma resonance (SPR) analysis; format: binding
T1 construct: His; made in house; host or cells: Sf9 insect cells; This is inferred: 'the purified recombinant GSK3 beta' points back to the protein of b91
T1 sequence (P49841 whole entry): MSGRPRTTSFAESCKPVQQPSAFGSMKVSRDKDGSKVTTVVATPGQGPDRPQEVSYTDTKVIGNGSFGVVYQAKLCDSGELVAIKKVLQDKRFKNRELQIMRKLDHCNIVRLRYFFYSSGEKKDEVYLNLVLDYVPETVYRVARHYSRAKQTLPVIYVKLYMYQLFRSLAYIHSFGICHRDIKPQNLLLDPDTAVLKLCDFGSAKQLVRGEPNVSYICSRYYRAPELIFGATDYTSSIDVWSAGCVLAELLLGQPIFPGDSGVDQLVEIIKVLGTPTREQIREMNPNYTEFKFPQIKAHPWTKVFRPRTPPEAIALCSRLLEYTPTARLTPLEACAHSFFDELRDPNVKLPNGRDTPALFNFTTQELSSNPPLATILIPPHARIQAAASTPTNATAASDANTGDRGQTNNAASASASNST
Procedure: In order to confirm whether niclosamide directly binds to GSK3, surface plasma resonance (SPR) analysis was conducted.
SPR was carried out using ProteOn™ XPR36 Protein Interaction Array system (Bio-Rad Laboratories, Inc., CA, USA), and the purified recombinant GSK3 beta was immobilized on ProteOn GLH sensor chip. The niclosamide or 19-mer wild-type Axin peptide or mutant peptide (VEPQKAAEEAIHRAEAVQR, mutation underlined) was diluted with phosphate-buffered saline+Tween 20+1% DMSO at different concentrations respectively, and then was flowed into the chip at a rate of 100 μl/min, and the result was analyzed by ProteOn Manager Software 2.0 using the standard Langmuir models for fitting kinetic data. The complex formation ratio was represented by an association constant (ka, in the unit of M−1s−1), and the complex decrement ratio was represented by a dissociation constant (kd, in the unit of s−1) as the following equilibrium equation 1.
The high-affinity interaction is represented by the low dissociation constant, and gradual cognition and binding with interactant (rapid “on rate,” or high ka), and stability of complex formation (slow “off rate,” or low kd) are equal to the equation KD=kd/ka.

Compound: CC[C@@H](C(=O)[C@@H](C)[C@@H](O)[C@H](C)[C@@H]1O[C@@H]([C@@H](CC)C(=O)O)CC[C@@H]1C)[C@H]1O[C@]2(C=C[C@@H](O)[C@]3(CC[C@@](C)([C@H]4CC[C@](O)(CC)[C@H](C)O4)O3)O2)[C@H](C)C[C@@H]1C [Salinomycin]
potency in inhibiting cancer differentiation in proportion to paclitaxel [1]: up to 100 times

Kd (recombinant GSK3 beta; immobilized GSK3 beta, read-out: Equilibrium dissociation constant, KD): 35 µM
Compound: CC[C@H](C)[C@H](NC(=O)[C@H](CC(C)C)NC(=O)[C@H](CCC(=O)O)NC(=O)[C@H](CCC(=O)O)NC(=O)[C@H](C)NC(=O)[C@H](Cc1ccccc1)NC(=O)[C@H](CCCCN)NC(=O)[C@H](CCC(N)=O)NC(=O)[C@@H]1CCCN1C(=O)[C@H](CCC(=O)O)NC(=O)[C@@H](N)C(C)C)C(=O)N[C@@H](Cc1c[nH]cn1)C(=O)N[C@@H](CCCNC(=N)N)C(=O)N[C@@H](CC(C)C)C(=O)N[C@@H](CCC(=O)O)C(=O)N[C@@H](C)C(=O)N[C@H](C(=O)N[C@@H](CCC(N)=O)C(=O)N[C@@H](CCCNC(=N)N)C(=O)O)C(C)C [wild-type Axin peptide, VEPQKFAEELIHRLEAVQR]

Kd (recombinant GSK3 beta; immobilized GSK3 protein, read-out: binding to GSK3 (could not bind up to)): > 100 µM
Compound: VEPQKAAEEAIHRAEAVQR [mutant Axin peptide, VEPQKAAEEAIHRAEAVQR]
